Data published in PubChem BioAssay (NCI).
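Assay format: 96-well plates, 48-hour exposure. Here, GI50 denotes the concentration required for 50% inhibition of growth. TGI: total growth inhibition.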

Tests used:
Assay in all cases: DTP human tumour cell line panel, 48 h
[1] = test system: ACHN renal
[2] = test system: U251 CNS
[3] = test system: UACC-62 melanoma
[4] = test system: SK-MEL-28 melanoma
[5] = test system: A549 NSCLC
[6] = test system: M14 melanoma
[7] = test system: T-47D breast
[8] = test system: 786-0 renal
[9] = test system: SK-MEL-5 melanoma
[10] = test system: SN12C renal
[11] = test system: HT29 colon
[12] = test system: MALME-3M melanoma
[13] = test system: K-562 leukemia
[14] = test system: SK-OV-3 ovarian
[15] = test system: OVCAR-4 ovarian
[16] = test system: HOP-62 NSCLC
[17] = test system: NCI-H460 lung
[18] = test system: SR leukemia
[19] = test system: PC-3 prostate
[20] = test system: HCT-116 colon
[21] = test system: KM12 colon
[22] = test system: COLO 205 colon
[23] = test system: NCI-H522 lung
[24] = test system: SNB-75 CNS
[25] = test system: SF-268 CNS
[26] = test system: BT-549 breast
[27] = test system: TK-10 renal
[28] = test system: RPMI-8226 leukemia
[29] = test system: HCT-15 colon
[30] = test system: NCI/ADR-RES ovarian
[31] = test system: SNB-19 CNS
[32] = test system: NCI-H23 lung
[33] = test system: SK-MEL-2 melanoma
[34] = test system: OVCAR-3 ovarian
[35] = test system: HCC-2998 colon
[36] = test system: OVCAR-8 ovarian
[37] = test system: A498 renal
[38] = test system: OVCAR-5 ovarian
[39] = test system: DU-145 prostate
[40] = test system: SF-295 CNS
[41] = test system: MCF7 breast
[42] = test system: EKVX NSCLC
[43] = test system: UACC-257 melanoma
[44] = test system: LOX IMVI melanoma
[45] = test system: MDA-MB-231 breast
[46] = test system: NCI-H226 lung
[47] = test system: HL-60(TB) leukemia
[48] = test system: MOLT-4 leukemia
[49] = test system: HS 578T breast
[50] = test system: UO-31 renal
[51] = test system: CAKI-1 renal
[52] = test system: HOP-92 NSCLC
[53] = test system: SF-539 CNS
[54] = test system: IGROV1 ovarian
[55] = test system: CCRF-CEM leukemia
[56] = test system: RXF 393 renal
[57] = test system: SW-620 colon
[58] = test system: MDA-MB-435

## COc1cc(/C=C/C(=O)c2ccccc2O)ccc1OCCCOc1cc2c(cc1OC)C(=O)N1CCC[C@H]1C=N2
[1]
  GI50: 71 nM
  TGI: 818 nM
[2]
  GI50: 22.6 nM
  TGI: 51.1 nM
[3]
  GI50: 38.8 nM
  TGI: 102 nM
[4]
  GI50: 47.6 nM
  TGI: 109 nM
[5]
  GI50: 31.5 nM
  TGI: 1240 nM
[6]
  GI50: 40.1 nM
  TGI: 172 nM
[7]
  GI50: 152 nM
[8]
  GI50: 25 nM
  TGI: 1530 nM
[9]
  GI50: 57.7 nM
  TGI: 167 nM
[10]
  GI50: 52.1 nM
  TGI: 1300 nM
[11]
  GI50: 34.4 nM
  TGI: > 100000 nM
[12]
  GI50: 78.7 nM
  TGI: 318 nM
[13]
  GI50: 29.7 nM
  TGI: 18200 nM
[14]
  GI50: 316 nM
  TGI: 3820 nM
[15]
  GI50: 116 nM
  TGI: 15200 nM
[16]
  GI50: 39.2 nM
  TGI: 13100 nM
[17]
  GI50: 51.1 nM
  TGI: 11100 nM
[18]
  GI50: 18.4 nM
  TGI: 52.3 nM
[19]
  GI50: 54.1 nM
  TGI: 7510 nM
[20]
  GI50: 33.2 nM
  TGI: 1570 nM
[21]
  GI50: 36.9 nM
  TGI: 263 nM
[22]
  GI50: 34.8 nM
  TGI: 144 nM
[23]
  GI50: 66.2 nM
  TGI: 453 nM
[24]
  GI50: 46.8 nM
  TGI: 222 nM
[25]
  GI50: 24.7 nM
  TGI: 64 nM
[26]
  GI50: 17.9 nM
  TGI: 47.6 nM
[27]
  GI50: 79.4 nM
  TGI: 1620 nM
[28]
  GI50: 28.2 nM
  TGI: 75.8 nM
[29]
  GI50: 255 nM
  TGI: 1050 nM
[30]
  GI50: 345 nM
  TGI: 16800 nM
[31]
  GI50: 193 nM
[32]
  GI50: 36.3 nM
  TGI: 151 nM
[33]
  GI50: 99.9 nM
  TGI: 392 nM
[34]
  GI50: 28.9 nM
  TGI: 124 nM
[35]
  GI50: 138 nM
  TGI: 433 nM
[36]
  GI50: 75.9 nM
  TGI: 13500 nM
[37]
  GI50: 47.9 nM
  TGI: 319 nM
[38]
  GI50: 35.4 nM
  TGI: 1160 nM
[39]
  GI50: 35.1 nM
  TGI: 452 nM
[40]
  GI50: 28.1 nM
  TGI: 89.5 nM
[41]
  GI50: 42.6 nM
  TGI: > 36900 nM
[42]
  GI50: 215 nM
  TGI: 955 nM
[43]
  GI50: 158 nM
  TGI: 527 nM
[44]
  GI50: 20.4 nM
  TGI: 48.9 nM
[45]
  GI50: 56.4 nM
  TGI: 335 nM
[46]
  GI50: 181 nM
  TGI: 541 nM
[47]
  GI50: 51.5 nM
  TGI: 161 nM
[48]
  GI50: 17 nM
  TGI: 57.2 nM
[49]
  GI50: 54 nM
  TGI: 284 nM
[50]
  GI50: 81.2 nM
  TGI: 771 nM
[51]
  GI50: 40.3 nM
  TGI: 313 nM
[52]
  GI50: 49.9 nM
  TGI: 990 nM
[53]
  GI50: 35.9 nM
  TGI: 118 nM
[54]
  GI50: 25.5 nM
  TGI: 163 nM
[55]
  GI50: 27 nM
  TGI: 94 nM

## COc1cc(/C=C2\C(=O)Nc3ccc(Cl)cc32)cc(OC)c1OC
[1]
  GI50: 23500 nM
  TGI: > 100000 nM
[56]
  GI50: 1820 nM
  TGI: 8220 nM
[2]
  GI50: 13100 nM
  TGI: 32400 nM
[3]
  GI50: 16300 nM
  TGI: > 100000 nM
[4]
  GI50: > 100000 nM
  TGI: > 100000 nM
[5]
  GI50: 41200 nM
  TGI: > 100000 nM
[7]
  GI50: > 100000 nM
  TGI: > 100000 nM
[9]
  GI50: 12700 nM
  TGI: > 100000 nM
[10]
  GI50: 26500 nM
  TGI: > 100000 nM
[11]
  GI50: 6710 nM
  TGI: > 100000 nM
[12]
  GI50: 32000 nM
  TGI: > 100000 nM
[13]
  GI50: 4440 nM
  TGI: > 100000 nM
[57]
  GI50: 29900 nM
  TGI: > 100000 nM
[14]
  GI50: 13400 nM
  TGI: 33800 nM
[15]
  GI50: 43900 nM
  TGI: > 100000 nM
[58]
  GI50: 3260 nM
  TGI: 9370 nM
[17]
  GI50: 24200 nM
  TGI: > 100000 nM
[18]
  GI50: 3290 nM
  TGI: > 100000 nM
[19]
  GI50: 2930 nM
  TGI: > 100000 nM
[21]
  GI50: 4070 nM
  TGI: > 100000 nM
[22]
  GI50: 8010 nM
  TGI: > 100000 nM
[23]
  GI50: 13700 nM
  TGI: > 100000 nM
[24]
  GI50: 7000 nM
  TGI: 21800 nM
[25]
  GI50: 8990 nM
  TGI: > 100000 nM
[26]
  GI50: 22300 nM
  TGI: 92300 nM
[27]
  GI50: 24000 nM
  TGI: 78300 nM
[28]
  GI50: 3900 nM
  TGI: > 100000 nM
[29]
  GI50: 9160 nM
  TGI: > 100000 nM
[30]
  GI50: 7290 nM
  TGI: 59300 nM
[31]
  GI50: 24800 nM
  TGI: > 100000 nM
[32]
  GI50: 12900 nM
  TGI: 39200 nM
[33]
  GI50: 31900 nM
  TGI: > 100000 nM
[34]
  GI50: 19600 nM
  TGI: > 100000 nM
[35]
  GI50: 5820 nM
  TGI: 61200 nM
[36]
  GI50: 22900 nM
  TGI: > 100000 nM
[37]
  GI50: 23200 nM
  TGI: 72400 nM
[38]
  GI50: 21200 nM
  TGI: 62300 nM
[40]
  GI50: 78200 nM
  TGI: > 100000 nM
[41]
  GI50: 26000 nM
  TGI: > 100000 nM
[42]
  GI50: 13800 nM
  TGI: > 100000 nM
[43]
  GI50: 29500 nM
  TGI: > 100000 nM
[44]
  GI50: 21900 nM
  TGI: > 100000 nM
[45]
  GI50: 11400 nM
  TGI: 37300 nM
[46]
  GI50: 51300 nM
  TGI: > 100000 nM
[47]
  GI50: 13400 nM
  TGI: > 100000 nM
[48]
  GI50: 75100 nM
  TGI: > 100000 nM
[49]
  GI50: 16500 nM
  TGI: > 100000 nM
[50]
  GI50: 16000 nM
  TGI: > 100000 nM
[51]
  GI50: 23600 nM
  TGI: > 100000 nM
[52]
  GI50: 3390 nM
  TGI: 22900 nM
[53]
  GI50: 16800 nM
  TGI: 45600 nM
[54]
  GI50: 4510 nM
  TGI: > 100000 nM
[55]
  GI50: 7280 nM
  TGI: > 100000 nM
